Laboratory results: patent publication US20250064941A1, “SIGLEC LIGANDS, CONJUGATES, AND METHODS OF USE THEREOF” (Osprey Biopharmaceuticals, Inc., priority 2023, published 2025)
pKd: −log10 of the molar value.

How the values were obtained:
[1] = target: T1, mouse Siglec-2-Fc-Avi (CD22) (Mus musculus, UniProt P35329); experiment: SPR binding affinity to mouse CD22; conditions: steady-state analysis
T1 construct: made in house
T1 sequence (P35329 22-708 limits assumed): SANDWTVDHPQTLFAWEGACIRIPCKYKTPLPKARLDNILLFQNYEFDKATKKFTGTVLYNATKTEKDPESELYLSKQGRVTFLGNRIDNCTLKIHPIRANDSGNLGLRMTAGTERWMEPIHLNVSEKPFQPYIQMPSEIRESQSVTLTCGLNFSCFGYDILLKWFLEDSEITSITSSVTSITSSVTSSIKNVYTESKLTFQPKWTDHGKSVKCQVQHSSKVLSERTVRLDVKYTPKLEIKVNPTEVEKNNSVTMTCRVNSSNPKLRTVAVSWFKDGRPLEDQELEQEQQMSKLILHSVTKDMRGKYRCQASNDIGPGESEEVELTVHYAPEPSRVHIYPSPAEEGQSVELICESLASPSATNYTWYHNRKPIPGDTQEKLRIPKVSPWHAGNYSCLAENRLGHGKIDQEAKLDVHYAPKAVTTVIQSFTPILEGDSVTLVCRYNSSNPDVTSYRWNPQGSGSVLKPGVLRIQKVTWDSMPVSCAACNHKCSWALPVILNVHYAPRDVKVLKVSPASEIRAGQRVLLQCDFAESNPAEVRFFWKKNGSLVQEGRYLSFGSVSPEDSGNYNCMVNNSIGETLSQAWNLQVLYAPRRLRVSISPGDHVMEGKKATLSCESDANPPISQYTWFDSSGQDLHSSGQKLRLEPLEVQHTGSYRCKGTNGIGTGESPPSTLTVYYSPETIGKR
Method in brief: (§1)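 Biotinylated CD22 desialylated with SialoExo (4 h, 37° C) before capture on streptavidin chip. Running buffer 10 mM HEPES, 150 mM NaCl, 0.05% Tween-20, pH 7.5, 1% DMSO, with DMSO solvent correction; 120 s dissociation. Compound affinities from steady-state analysis.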

[2] = target: T2, human Siglec-2/CD22 protein (Homo sapiens, UniProt P20273); experiment: SPR binding affinity to human CD22; conditions: steady-state analysis
T2 construct: purchased Acro Biosystems SI2-H82E3
T2 sequence (P20273 20-847): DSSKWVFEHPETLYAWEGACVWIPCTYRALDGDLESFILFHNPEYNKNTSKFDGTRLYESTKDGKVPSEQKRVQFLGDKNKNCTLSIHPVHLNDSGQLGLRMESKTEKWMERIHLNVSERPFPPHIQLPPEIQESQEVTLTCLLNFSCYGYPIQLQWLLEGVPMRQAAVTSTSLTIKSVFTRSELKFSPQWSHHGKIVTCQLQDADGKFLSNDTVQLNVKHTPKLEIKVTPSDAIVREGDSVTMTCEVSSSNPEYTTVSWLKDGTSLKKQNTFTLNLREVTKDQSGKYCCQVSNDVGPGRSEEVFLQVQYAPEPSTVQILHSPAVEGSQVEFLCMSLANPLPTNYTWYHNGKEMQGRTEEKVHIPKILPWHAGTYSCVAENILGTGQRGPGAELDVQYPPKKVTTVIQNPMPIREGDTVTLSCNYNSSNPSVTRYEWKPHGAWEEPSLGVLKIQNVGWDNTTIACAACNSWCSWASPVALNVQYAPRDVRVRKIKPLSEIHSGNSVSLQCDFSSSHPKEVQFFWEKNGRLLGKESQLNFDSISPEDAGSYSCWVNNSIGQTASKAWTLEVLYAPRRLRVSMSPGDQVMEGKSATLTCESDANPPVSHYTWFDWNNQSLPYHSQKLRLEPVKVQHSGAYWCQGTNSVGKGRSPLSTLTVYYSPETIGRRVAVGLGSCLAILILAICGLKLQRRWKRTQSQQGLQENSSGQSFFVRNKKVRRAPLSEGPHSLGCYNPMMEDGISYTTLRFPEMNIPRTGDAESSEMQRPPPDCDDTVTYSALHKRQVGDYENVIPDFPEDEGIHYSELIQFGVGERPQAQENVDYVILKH
Method in brief: as §1

cynomolgus Siglec-2/CD22 = cynomolgus Siglec-2/CD22 (Macaca fascicularis, UniProt A0A2K5WCZ6); experiment: biochemical; assay type: binding; conditions: SPR, steady-state analysis; read-out: Affinity cyno CD22
Method in brief: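 Compound binding measured by steady-state SPR analysis, 120 s dissociation, in HEPES-NaCl-Tween buffer pH 7.5 containing 1% DMSO, DMSO solvent-corrected. Surface: cyno CD22, sialic acids first stripped by SialoExo for 4 h at 37° C., then amine-coupled onto CM5.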

Sequence of cynomolgus Siglec-2/CD22 (A0A2K5WCZ6 entry or part of it): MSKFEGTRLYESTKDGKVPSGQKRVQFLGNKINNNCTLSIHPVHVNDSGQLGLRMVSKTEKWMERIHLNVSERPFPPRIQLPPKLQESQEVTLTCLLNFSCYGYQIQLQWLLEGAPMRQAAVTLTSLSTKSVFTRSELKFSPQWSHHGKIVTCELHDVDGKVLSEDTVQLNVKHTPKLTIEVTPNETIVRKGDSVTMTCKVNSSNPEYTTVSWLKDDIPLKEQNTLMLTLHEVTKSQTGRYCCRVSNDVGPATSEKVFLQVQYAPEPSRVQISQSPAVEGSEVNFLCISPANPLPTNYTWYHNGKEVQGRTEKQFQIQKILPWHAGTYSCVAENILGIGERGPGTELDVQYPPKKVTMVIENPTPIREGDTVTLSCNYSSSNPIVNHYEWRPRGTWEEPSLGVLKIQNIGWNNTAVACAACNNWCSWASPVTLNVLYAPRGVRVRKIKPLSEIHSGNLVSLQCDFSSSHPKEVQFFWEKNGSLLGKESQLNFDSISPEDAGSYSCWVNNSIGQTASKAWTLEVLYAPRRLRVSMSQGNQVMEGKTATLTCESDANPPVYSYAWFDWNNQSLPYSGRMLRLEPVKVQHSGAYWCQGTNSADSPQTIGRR

Compound: CCCNC(=O)CCOCCOCCOCCn1cc(CCOc2ccc(CO[C@]3(C(=O)O)C[C@H](O)[C@@H](NC(N)=O)[C@H]([C@H](O)[C@H](O)CNC(=O)Cc4ccc(Cl)cc4)O3)cc2)nn1 [Compound 222, (2R,4S,5R,6R)-6-((1R,2R)-3-(2-(4-chlorophenyl)acetamido)-1,2-dihydroxypropyl)-4-hydroxy-2-((4-(2-(1-(12-oxo-3,6,9-trioxa-13-azahexadecyl)-1H-1,2,3-triazol-4-yl)ethoxy)benzyl)oxy)-5-ureidotetrahydro-2H-pyran-2-carboxylic acid]
- pKd [1]: > 6.00
- pKd [2]: > 6.00
- pKd (cynomolgus Siglec-2/CD22): > 6.00

Compound: C#CCOCCCCCCO[C@]1(C(=O)O)C[C@H](O)[C@@H](NC(=O)C(N)=O)[C@H]([C@H](O)[C@H](O)CNC(=O)Cc2ccc(Cl)cc2)O1 [Compound 223, (2R,4S,5R,6R)-5-(2-amino-2-oxoacetamido)-6-((1R,2R)-3-(2-(4-chlorophenyl)acetamido)-1,2-dihydroxypropyl)-4-hydroxy-2-((6-(prop-2-yn-1-yloxy)hexyl)oxy)tetrahydro-2H-pyran-2-carboxylic acid]
- pKd [1]: 5.00 to 6.00
- pKd [2]: > 6.00
- pKd (cynomolgus Siglec-2/CD22): 5.00 to 6.00

Compound: C#CCNc1c(NCCCCCCO[C@]2(C(=O)O)C[C@H](O)[C@@H](NC(N)=O)[C@H]([C@H](O)[C@H](O)CNC(=O)Cc3ccc(-c4ccccc4)cc3)O2)c(=O)c1=O [Compound 224, (2R,4S,5R,6R)-6-((1R,2R)-3-(2-([1,1′-biphenyl]-4-yl)acetamido)-1,2-dihydroxypropyl)-2-((6-((3,4-dioxo-2-(prop-2-yn-1-ylamino)cyclobut-1-en-1-yl)amino)hexyl)oxy)-4-hydroxy-5-ureidotetrahydro-2H-pyran-2-carboxylic acid]
- pKd [1]: > 6.00
- pKd [2]: > 6.00
- pKd (cynomolgus Siglec-2/CD22): > 6.00

Compound: C#CCOCCOCCO[C@]1(C(=O)O)C[C@H](O)[C@@H](NS(=O)(=O)NC)[C@H]([C@H](O)[C@H](O)CNC(=O)Cc2ccc(-c3ccc(O)cc3)cc2)O1 [Compound 225, (2R,4S,5R,6R)-6-((1R,2R)-1,2-dihydroxy-3-(2-(4′-hydroxy-[1,1′-biphenyl]-4-yl)acetamido)propyl)-4-hydroxy-5-((N-methylsulfamoyl)amino)-2-(2-(2-(prop-2-yn-1-yloxy)ethoxy)ethoxy)tetrahydro-2H-pyran-2-carboxylic acid]
- pKd [1]: < 5.00
- pKd [2]: < 5.00
- pKd (cynomolgus Siglec-2/CD22): < 5.00

Compound: C#CCNC(=O)CCOCCOCCO[C@]1(c2nn[nH]n2)C[C@H](O)[C@@H](NC(=O)CO)[C@H]([C@H](O)[C@H](O)CNC(=O)Cc2ccc(Cl)cc2)O1 [Compound 226, 3-(2-(2-(((2R,4S,5R,6R)-6-((1R,2R)-3-(2-(4-chlorophenyl)acetamido)-1,2-dihydroxypropyl)-4-hydroxy-5-(2-hydroxyacetamido)-2-(2H-tetrazol-5-yl)tetrahydro-2H-pyran-2-yl)oxy)ethoxy)ethoxy)-N-(prop-2-yn-1-yl)propanamide]
- pKd [1]: < 5.00
- pKd [2]: < 5.00
- pKd (cynomolgus Siglec-2/CD22): < 5.00

Compound: C#CCOCCOCCNc1c(NCCCCCCO[C@]2(C(=O)O)C[C@H](O)[C@@H](NC(=O)CO)[C@H]([C@H](O)[C@H](O)CNC(=O)c3cccc(Cl)c3)O2)c(=O)c1=O [Compound 227, (2R,4S,5R,6R)-6-((1R,2R)-3-(3-chlorobenzamido)-1,2-dihydroxypropyl)-2-((6-((3,4-dioxo-2-((2-(2-(prop-2-yn-1-yloxy)ethoxy)ethyl)amino)cyclobut-1-en-1-yl)amino)hexyl)oxy)-4-hydroxy-5-(2-hydroxyacetamido)tetrahydro-2H-pyran-2-carboxylic acid]
- pKd [1]: 5.00 to 6.00
- pKd [2]: > 6.00
- pKd (cynomolgus Siglec-2/CD22): > 6.00

Compound: CC(=O)NCCOCCOCCOCCOCCNC(=O)CCCCCO[C@]1(C(=O)O)C[C@H](O)[C@@H](NC(=O)CO)[C@H]([C@H](O)[C@H](O)CNC(=O)Cc2ccc(Cl)cc2)O1 [Compound 228, (2R,4S,5R,6R)-6-((1R,2R)-3-(2-(4-chlorophenyl)acetamido)-1,2-dihydroxypropyl)-2-((2,19-dioxo-6,9,12,15-tetraoxa-3,18-diazatetracosan-24-yl)oxy)-4-hydroxy-5-(2-hydroxyacetamido)tetrahydro-2H-pyran-2-carboxylic acid]
- pKd [1]: 5.00 to 6.00
- pKd [2]: 5.00 to 6.00
- pKd (cynomolgus Siglec-2/CD22): > 6.00
